Legend:
[1] = dimethyl isosorbate as solvent; cited from earlier work
[2] = pH of KSA / KASA formulas; type: physicochemical
Description: In 50 ml water, 37 gms KOH are mixed with 76 gms SA. […] Administration is by gradual ingestion by sipping. A much higher dose of 2 gm KSA can be administered as needed using two 1 gm doses separated by an interval of time so that the doses overlap closely.
An example of a topical KSA is as follows: Using the supersaturated KSA formula of Example 1, a topical formula was prepared as follows: 225 ml Aloe Vera Gel was mixed with 2½ ml liquid castile soap (Dr. Bronner's was used), and 2½ ml vegetable glycerin. Dry ingredients of 900 mg citric acid, 600 mg guar gum and 14 gm dehydrated KSA are separately mixed.

[3] = 1 gm dehydrated product mixed with 225 ml water

Compound	concentration of ASA achieved in solution [1]	pH [2, 3]	pH ([2]; concentrated solution as prepared, before dehydration)
CC(=O)Oc1ccccc1C(=O)O [ASA, acetylsalicylic acid]	280 mg of ASA/ml	–	–
O=C(O)c1ccccc1O.[K] [KSA, potassium salicylic acid]	–	8.90	12.0-13.0
CC(=O)Oc1ccccc1C(=O)[O-].[K+] [KASA, potassium acetylsalicyclic acid]	–	8.42	–
